ChEMBL document CHEMBL4680203, “Cladosins L-O, new hybrid polyketides from the endophytic fungus Cladosporium sphaerospermum WBS017” (Eur J Med Chem, 2020)

What was measured:
Saccharomyces cerevisiae [1] = test: Antifungal activity against Saccharomyces cerevisiae ESM356-1 assessed as diameter of zone inhibition at 50 ug by Kirby-Bauer disk diffusion method; assay type: functional; settings: read-out: DIZ
Ustilago maydis [2] = test: Antifungal activity against Ustilago maydis AB33 assessed as diameter of zone inhibition at 50 ug by Kirby-Bauer disk diffusion method; assay type: functional; settings: Mycosarcoma maydis, read-out: DIZ
Ustilago maydis [3] = test: Antifungal activity against Ustilago maydis AB33 assessed as diameter of zone inhibition at 100 ug by Kirby-Bauer disk diffusion method; assay type: functional; settings: Mycosarcoma maydis
Acinetobacter baumannii = test: […] activity against Acinetobacter baumannii BAA1605 assessed as reduction in microbial growth by CLSI based broth microdilution method; assay type: functional
Pseudomonas aeruginosa = test: Antibacterial activity against Pseudomonas aeruginosa 27853 assessed as reduction in microbial growth by CLSI based broth microdilution method; assay type: functional
Staphylococcus aureus [4] = test: Antibacterial activity against Staphylococcus aureus ATCC 29213 assessed as reduction in microbial growth by CLSI based broth microdilution method; assay type: functional
L5178Y [5] = test: Cytotoxicity against mouse L5178Y cells assessed as cell viability at 10 ug/ml after 24 hrs by MTT assay relative to control; assay type: functional; settings: read-out: Activity
[6] = test system: Mycobacterium tuberculosis; test: Antitubercular activity against Mycobacterium tuberculosis H37Rv assessed as reduction in microbial growth by CLSI based broth microdilution method; assay type: functional
L5178Y [7] = test: Cytotoxicity against mouse L5178Y cells assessed as reduction in cell viability after 24 hrs by MTT assay; assay type: functional, cell-based
Saccharomyces cerevisiae [8] = test: Antifungal activity against Saccharomyces cerevisiae ESM356-1 assessed as diameter of zone inhibition at 100 ug by Kirby-Bauer disk diffusion method; assay type: functional, organism-based; settings: dose 100.0 µg
Enterococcus faecalis = test: […] activity against Enterococcus faecalis ATCC 29212 assessed as reduction in microbial growth by CLSI based broth microdilution method; assay type: functional
Staphylococcus aureus [9] = test: Antibacterial activity against Staphylococcus aureus ATCC 700699 assessed as reduction in microbial growth by CLSI based broth microdilution method; assay type: functional

Compound | MIC (Acinetobacter baumannii) | MIC (Pseudomonas aeruginosa) | MIC (Staphylococcus aureus [4]) | viability at 10 µg/mL (L5178Y [5]) | MIC [6] | also measured
CN[C@H]1C[C@@H](N)[C@H](O)[C@@H](O[C@@H]2O[C@H](CO)[C@H](O)[C@@H]3O[C@@]4(O[C@H]23)O[C@H]([C@H](N)CO)[C@H](O)[C@H](O)[C@H]4O)[C@@H]1O | – | – | – | – | – | zone of inhibition at 50 µg/disc (Saccharomyces cerevisiae [1]): 8.7 mm; zone of inhibition at 50 µg/disc (Ustilago maydis [2]): 8.3 mm
CC(C)=C1NC(=O)C(=C2C=CCC(C)O2)C1=O (centres undefined) | > 100 µM | > 100 µM | > 100 µM | 0% | > 100 µM | zone of inhibition at 100 µg/disc (Ustilago maydis [3]; read-out: DIZ): 9.7 mm; EC50 (L5178Y [7]): 3.7 µM
CC(C)=C1NC(=O)C(=C(N)CC(O)C[C@H](C)O)C1=O (some centres undefined) | > 100 µM | > 100 µM | > 100 µM | 53.1% | 100 µM | –
NYSTATIN | – | – | – | – | – | inhibition zone (IZ) (Ustilago maydis [3]; dose 100.0 µg): 32.7 mm; inhibition zone (IZ) (Saccharomyces cerevisiae [8]): 7.8 mm
CC(C)=C1NC(=O)C(=C(N)CCCC(C)O)C1=O (mixture of isomers) | > 100 µM | > 100 µM | > 100 µM | 50.9% | 100 µM | –
CC(C)=C1NC(=O)C2=C1O[C@@H](C[C@H](C)O)CC2=O | > 100 µM | > 100 µM | > 100 µM | – | > 100 µM | –
CC(C)=C1NC(=O)C(=C(N)/C=C/CC(C)O)C1=O (centres undefined) | > 100 µM | > 100 µM | > 100 µM | 32.8% | 100 µM | –
CC(C)=C1NC(=O)C(=C(N)CC(O)C[C@@H](C)O)C1=O (some centres undefined) | > 100 µM | > 100 µM | > 100 µM | 82.2% | 100 µM | –
C/C=C1\NC(=O)[C@H](Cc2ccccc2)NC(=O)[C@H](C(C)C)NC(=O)[C@@H]([C@@H](C)CC)NC(=O)[C@@H](NC(=O)[C@H](NC(=O)[C@H](CCCN)NC(=O)[C@H]2CCCN2C(=O)[C@@H](NC(=O)C(NC(=O)[C@@H](NC(=O)[C@@H](NC(=O)CCCC(C)C)C(C)C)[C@@H](C)O)C(C)C)C(C)C)[C@@H](C)CC)[C@@H](C)OC(=O)[C@H](C(C)C)NC1=O (some centres undefined) | – | – | – | 0% | – | EC50 (L5178Y [7]): 4.3 µM
CC(C)=C1NC(=O)C(=Cc2ccc(O)cc2)C1=O (mixture of isomers) | > 100 µM | > 100 µM | 50 µM | 18.2% | > 100 µM | MIC (Enterococcus faecalis): > 100 µM; MIC (Staphylococcus aureus [9]): 25 µM
CC(C)=C1NC(=O)C2=C1O[C@H](C[C@H](C)O)CC2=O | > 100 µM | > 100 µM | > 100 µM | 100% | > 100 µM | –
